Results: patent publication US20240261422A1, “ANTHRACYCLINE ANTIBODY CONJUGATES” (SEAGEN INC., priority 2021, published 2024)
Where two headings read alike, the source gives them in different places.

How the values were obtained:
L540cy, HL = experiment: In vitro growth inhibition (CellTiter-Glo, 96 h), L540cy; assay type: cell-based; conditions: L540cy, 96 h, read-out: IC50 (nM) L540cy, HL
Description: (§1) Cell culture of cell lines as listed in Table 2-4 in log-phase growth were seeded in 96-well plates and grown for 24 h in cell culture media containing 150 μL RPMI 1640 supplemented with 20% FBS (see Mol. Cancer Ther., 2016, 15(5), 938-945 and Mol. Cancer Ther., 2018, 17(8), 1752-1760). Serial dilutions of free drugs or antibody-drug conjugates (final concentration between 0.004 nM and 1 μM) in cell culture media were prepared at 4× working concentrations; 50 μL of each dilution was added to the 96-well plates. Following addition of the drug or ADC, the cells were incubated with test articles (free drugs or ADCs) for 4 d at 37° C. After 96 h, growth inhibition was assessed by CellTiter-Glo® (Promega, Madison, WI) and luminescence was measured on a plate reader (brand, model).
(§2) Cells were treated for 96 hours with anthracycline analogues listed in Table 2, and then assessed for viability as described in the procedures as described above. […] ND denotes value not determined with that assay for the specified compound.
(§3) ADCs were prepared by full reduction of interchain disulfides to reveal 8-conjugatable cysteines/antibody, and subsequent alkylation with the maleimide-containing drug-linkers (Compounds 14, 18, 21, 24, 29, 32, 33, 34, and 48) according to the procedures described in Mol. Cancer Ther. 2018, 17(8). 1752-1760. Conjugates of antibody cOKT9 were prepared with anthracycline linkers. Cancer cell lines were treated with cOKT9 ADCs (average DAR of 8:1) for 96 h and then assessed for viability. […] ND denotes value not determined with that assay for the specified compound.
Anti-CD30 ADCs comprising cAC10 antibody conjugated to drug-linkers 24, 32, 29, 18, 14, and 48 with an average DAR of 4 were prepared for evaluation on a CD30-expressing lymphoma cell line panel. […] Anti-CD30 conjugates bearing the PNU linkers 24, 32, 29, 18, and 14 were active on L540cy, DEL, and Karpas299 lymphoma cell lines, and conjugate 48 was active on L540cy and DEL cell lines, with IC50s ranging from 0.2-4 ng/mL.

786-O, MDR + RCC = experiment: In vitro growth inhibition (CellTiter-Glo, 96 h), 786-O; assay type: cell-based; conditions: Homo sapiens, read-out: IC50 (nM) 786-O, MDR + RCC
Description: as §1, §2, §3

BxPC3, PancCa = experiment: In vitro growth inhibition (CellTiter-Glo, 96 h), BxPC3; assay type: cell-based; conditions: Homo sapiens, read-out: IC50 (nM) BxPC3, PancCa
Description: as §1, §2, §3

HL60, AML = experiment: In vitro growth inhibition (CellTiter-Glo, 96 h), HL60; assay type: cell-based; conditions: Homo sapiens, HL-60; anthracycline free drugs, 96 h; read-out: IC50 (nM) HL60, AML
Description: as §1, §2, §3

HL60/RV, MDR + AML = experiment: In vitro growth inhibition (CellTiter-Glo, 96 h), HL60/RV; assay type: cell-based; conditions: Homo sapiens, HL-60; anthracycline free drugs, 96 h; read-out: IC50 (nM) HL60/RV, MDR + AML
Description: as §1, §2, §3

[1] = test system: L540cy, 786-O, BxPC3, HL60, HL60/RV; experiment: cells; conditions: 96 h, read-out: IC50 values on the cancer lines tested
[2] = 786-0, anthracycline free drugs, 96 h
[3] = BXPC-3, anthracycline free drugs, 96 h

IC50 (786-O, MDR + RCC; [2]) [nM]	IC50 (BxPC3, PancCa; [3]) [nM]	IC50 (HL60, AML) [nM]	IC50 (HL60/RV, MDR + AML) [nM]	IC50 [1] [nM]	SMILES	IC50 (L540cy, HL; anthracycline free drugs) [nM]	IC50 (L540cy, HL) [nM]	IC50 (786-O, MDR + RCC; 786-0, 96 h) [nM]	IC50 (BxPC3, PancCa; BXPC-3, 96 h) [nM]
10 to 100	100 to 1000	10 to 100	100 to 1000	13 to 390	COc1cccc2c1C(=O)c1c(O)c3c(c(O)c1C2=O)C[C@@](O)(C(=O)CO)C[C@@H]3O[C@H]1C[C@H](N)[C@H](O)[C@H](C)O1 [Compound 1, Doxorubicin, reference compound]	10 to 100	–	–	–
> 1000	> 1000	> 1000	> 1000	> 1000	COc1cccc2c1C(=O)c1c(O)c3c(c(O)c1C2=O)C[C@@](O)(C(=O)O)C[C@@H]3O[C@H]1C[C@H](N)[C@H](O)[C@H](C)O1 [Compound 2, (2S,4S)-4-(((2R,4S,5S,6S)-4-amino-5-hydroxy-6-methyltetrahydro-2H-pyran-2-yl)oxy)-2,5,12-trihydroxy-7-methoxy-6,11-dioxo-1,2,3,4,6,11-hexahydrotetracene-2-carboxylic acid]	> 1000	–	–	–

SMILES	IC50 (786-O, MDR + RCC; [2]) [nM]	IC50 (BxPC3, PancCa; [3]) [nM]	IC50 (HL60, AML) [nM]	IC50 (HL60/RV, MDR + AML) [nM]	IC50 [1] [nM]	IC50 (L540cy, HL; anthracycline free drugs) [nM]	IC50 (L540cy, HL) [nM]	IC50 (786-O, MDR + RCC; 786-0, 96 h) [nM]	IC50 (BxPC3, PancCa; BXPC-3, 96 h) [nM]
COc1cccc2c1C(=O)c1c(O)c3c(c(O)c1C2=O)C[C@@](O)(C(=O)CO)C[C@@H]3O[C@H]1C[C@H](N2CCO[C@H](OC)C2)[C@H](O)[C@H](C)O1 [Compound 3, Nemorubicin, reference compound]	–	–	–	–	2 to 3	–	< 10	< 10	< 10
